Paper PMC4279406, “Simultaneous targeting of PI3Kδ and a PI3Kδ-dependent MEK1/2-Erk1/2 pathway for therapy in pediatric B-cell acute lymphoblastic leukemia” (Oncotarget, 2014)

Experiments:
[1] = tested on: human B cell leukemia cells; test: Proliferation of a panel of human B cell leukemia cells (CCK-8); type: cell-based; conditions: 72 h, range over the cell panel, read-out: IC50s, proliferation
Description: Cell viability was assessed using Cell Counting Kit (CCK-8, Dojindo, Japan) following the manufacturer's protocol and OD values were measured with a Spectramax M5 plate reader (Molecular Devices, Sunnyvale, CA)[45].
Figure S3: X-370 inhibited proliferation of human B cell leukemia cells. Cells were seeded in 96 -well plate and treated with serial diluted X-370 for 72 h. cell viability was then assessed by CCK-8 reagent and inhibitory rate was calculated. […]
antiproliferative activity of X-370 against these cells. […]

Raji MEK DD cells = test: Proliferation of Raji MEK DD cells (CCK-8); type: cell-based, human; conditions: 72 h, CCK-8, compared with Raji
Description: Figure 5 Inhibition of Erk1/2 phosphorylation by X-370 contributed to its antiproliferative activity (A-C) X-370 inhibited Erk1/2 phosphorylation via PI3K-PDK1-MEK1/2 cascade but not the PI3K-Gab1 positive feedback loop. (A) Raji and SU-DHL-6 cells were exposed to 1 μM X370 for 3 h and protein fraction from cellular membrane was separated using Native Membrane Protein Extraction Kit and probed. WCL: whole cell lysate. (B) Inhibition of PDK1 or MEK1/2 abrogated Erk1/2 phosphorylation. Cells were treated with pharmacological inhibitors of Raf (AZ 628, PLX4032), MEK1/2 (AZD6244), p90RSK (BI-D1870), PI3Kδ (X-370), PDK1 (BX-912), Akt (MK-2206), mTOR (AZD8055) or mTORC1 (Rapamycin) respectively and indicated proteins were detected. […] Raji cells were treated with 1 μM X370 for 1 h and cell lysates were immunoprecipitated with anti-PDK1 antibody and indicated proteins were detected. […] (E) Raji and Raji MEK DD cells were treated with X-370 for 72 h and cell proliferation was detected by CCK-8 assay. (F) Raji MEK DD cells were treated with X-370 and AZD6244 and cell proliferation was detected by CCK-8 assay. Data were show as mean ± SD of three independent experiments. *: p < 0.05 determined by t-tests at each data point. […]
luciferase. Raji cells expressing MEK DD or luciferase were incubated with 1 μM AZD6244 or DMSO control respectively for 72 h, and then cell viability were assessed by CCK-8 reagent. […]

Raji cells = test: Caspase 3/7 activity assay; type: cell-based, human
Description: Simultaneous targeting of PI3Kδ and a PI3Kδ-dependent MEK1/2-Erk1/2 pathway for therapy in pediatric B-cell acute lymphoblastic […]
Cells were treated as indicated conditions and then subjected to lysate to perform standard Western blot as described previously1. Briefly, whole-cell lysates and SDS-loading buffer diluted cell fractions were analyzed on SDS-PAGE gels. Transfer to nitrocellulose membranes, nonfat milk blocking, probing with indicated primary antibodies and the corresponding HRP-conjugated second antibodies.
Chemiluminescence were performed and captured using ImageQuant LAS 4000 (GE healthcare Life Sciences, Piscataway, NJ, USA) and band intensity was measure both with ImageQuant™ TL (GE Healthcare Life Sciences) 2.
Caspase 3/7 activity assay
Raji cells were treated with or without X-370 at 1 μM, 5μM and 10 μM for 24, 48 and 72 hours, thenwere measured using the Caspase-Glo® 3/7 Assay (Promega, US) following the protocol and relative caspase-3/7 activity was normalized to cell number which DMSO control was the base line.
5-bromo-2'-deoxyuridine (BrdU) incorporation Assay
5-bromo-2'-deoxyuridine (BrdU) incorporation was performed using FITC BrdU Flow Kit (BD Pharmingen, San Diego, CA) according to the provided protocol.
Figure S1;. CAL-101 docked to the crystal structure of PI3Kδ. […]

[2] = tested on: PDK1 and MEK1/2 association in Raji cells; test: PDK1 immunoprecipitation, association with MEK1/2; type: cell-based, human; conditions: 1 μM, 1 h, anti-PDK1 immunoprecipitation
Description: Figure 5 Inhibition of Erk1/2 phosphorylation by X-370 contributed to its antiproliferative activity (A-C) X-370 inhibited Erk1/2 phosphorylation via PI3K-PDK1-MEK1/2 cascade but not the PI3K-Gab1 positive feedback loop. (A) Raji and SU-DHL-6 cells were exposed to 1 μM X370 for 3 h and protein fraction from cellular membrane was separated using Native Membrane Protein Extraction Kit and probed. WCL: whole cell lysate. (B) Inhibition of PDK1 or MEK1/2 abrogated Erk1/2 phosphorylation. Cells were treated with pharmacological inhibitors of Raf (AZ 628, PLX4032), MEK1/2 (AZD6244), p90RSK (BI-D1870), PI3Kδ (X-370), PDK1 (BX-912), Akt (MK-2206), mTOR (AZD8055) or mTORC1 (Rapamycin) respectively and indicated proteins were detected. (C) X-370 disrupted the association between PDK1 and MEK1/2. Raji cells were treated with 1 μM X370 for 1 h and cell lysates were immunoprecipitated with anti-PDK1 antibody and indicated proteins were detected. WCL: whole cell lysate. […] (E) Raji and Raji MEK DD cells were treated with X-370 for 72 h and cell proliferation was detected by CCK-8 assay. (F) Raji MEK DD cells were treated with X-370 and AZD6244 and cell proliferation was detected by CCK-8 assay. Data were show as mean ± SD of three independent experiments. *: p < 0.05 determined by t-tests at each data point. […]

- IC50 [1]: 0.04 to 6.3 µM
SMILES: O=C(N1CCCC1)N1CCC(n2cnc3c(-n4c(C(F)F)nc5ccccc54)nc(N4CCOCC4)nc32)CC1 [X-370]
- effect of MEK DD expression on inhibition of viability (Raji MEK DD cells): attenuated inhibition of viability
- concentration at which caspase 3/7 activity increased (Raji cells): ≥ 5 µM
- association between PDK1 and MEK1/2 [2]: dissociation of MEK1/2 and PDK1
